# “Also recorded” adds a separate entry of the source.
# What was measured:
# [1] = tested on: MM.1S-luc2; experiment: Combination of tolinapant and activated integrin β7 CAR-T in MM.1S-luc2 tumor-bearing NOG mice; assay type: in vivo, mouse
# Method: (§1) Each mouse was identified with a number attached to the tail of the mouse. During the breeding period, the mice were housed in groups of 5 mice each and bred in a breeding room at a temperature of 24° C.
# The evaluation period was set to up to day 14 or day 21. Grouping and pharmacological evaluation were performed using tumor luminescence values as determined by IVIS as an indicator. The luminescence value as determined by IVIS and body weight were measured twice a week.
# After grouping, the individuals were identified by marking on the tail of each mouse.
# For the measurement, IVIS (trademark) Lumina X5 was used.
# [2] = tested on: NALM6; experiment: Combination of tolinapant and CD19 CAR-KHYG-1 in NALM6 subcutaneous tumor-bearing NOG mice; assay type: in vivo, mouse
# Method: as §1
# After grouping, CD19 CAR KHYG-1 cells and KHYG-1 cells were intratumorally administered 4 times in total according to the group constitution.
# The evaluation period was set up to day 17. Grouping and pharmacological evaluation were performed using the results of tumor volume measurement with a caliper as an indicator. The tumor volume measurement and body weight measurement were performed twice a week and before each administration. […]
# On the 21th day after the transplantation, the long diameter and the short diameter were measured and the tumor volume was calculated. […]
# 4) For KHYG-1 cell administration solution and CD19 CAR-KHYG-1 cell administration solution, the number of viable cells was counted and a cell suspension with the cell density being adjusted according to the group composition table was prepared and intratumorally administered twice a week at 0.1 mL/body (4 times in total).
# The tumor diameter was determined by measuring the short diameter and the long diameter using an electronic caliper (produced by Mitutoyo Corporation). After tumor cell transplantation, the tumor diameter was measured twice a week. […]
compound,measurement,setting,value
"C[C@@H]1CN(CC(=O)N2CC(C)(C)c3nc(CO)c(Cc4ccc(F)cc4)cc32)[C@@H](CN2CCOC[C@H]2C)CN1 [Tolinapant, 1-[6-[(4-fluorophenyl)methyl]-5-(hydroxymethyl)-3,3-dimethyl-2H-pyrrolo[3,2-b]pyridin-1-yl]-2-[(2R,5R)-5-methyl-2-[[(3R)-3-methylmorpholin-4-yl]methyl]piperazin-1-yl]ethanone]",combination effect of tolinapant and aITGB7 CAR-T (tumor luminescence value),"[1]; tolinapant 16 mg/kg po every day + aITGB7 CAR-T 3×10^4 cells/body iv, evaluated for 21 days","A significant combination effect was observed; also recorded: tumor regression was clearly observed on day 11 and thereafter; also recorded: a significant synergistic effect was observed; also recorded: significant, highly reproducible results"
same,effect of tolinapant administered alone on MM.1S (MM),[1]; tolinapant alone,no effect
same,combination effect of tolinapant and CD19 CAR-KHYG-1 (tumor volume),"[2]; tolinapant 16 mg/kg po every day + CD19 CAR-KHYG-1 1×10^7 cells/body intratumoral Day 0, 4, 7, 11, evaluated for 17 days","A significant combination effect was observed; also recorded: a proliferation suppression effect was clearly shown on day 7 and thereafter; also recorded: significant combination effects were observed on day 17; also recorded: significant, highly reproducible results"
same,antitumor effect of tolinapant alone,"[2]; tolinapant alone, 16 mg/kg po every day",no antitumor effects were observed

# — patent US20250127813A1, “COMBINATION DRUG” (OTSUKA PHARMACEUTICAL CO., LTD., priority 2021, published 2025)
